Read-outs that look alike come from different tables or passages of the source.
Legend:
[1] = system: Smn protein; test: Smn protein assay in cultured cells (SMN HTRF); format: cell-based, human; details: 48 hours; for maximum fold (Fold) increase of Smn protein: SMA patient fibroblast cells, 7-point concentration data, fold increase relative to vehicle control (SMN HTRF); for EC1.5x (concentration giving 1.5-fold Smn protein increase): SMA Type 1 patient fibroblast cells (GM03813), 7-point concentration curve, SMN HTRF, concentration producing 1.5 times Smn protein vs DMSO vehicle control, read-out: EC1.5x for Smn protein expression
Procedure, shortened: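 Smn in SMA fibroblast lysates, measured by anti-SMN HTRF after 48 h compound exposure; EC1.5x from fold change over vehicle.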

[2] = system: SMN2 minigene (full length SMN2 minigene mRNA containing SMN2 exon 7); test: SMN2 minigene mRNA splicing RT-qPCR assay in cultured cells; format: cell-based, human; details: Homo sapiens, HEK293-H, read-out: EC1.5x for production of full length SMN2 mRNA
Procedure, shortened: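 Full-length SMN2 minigene mRNA (exon 7 included), minigene-specific and not endogenous SMN, quantified by RT-qPCR multiplexed with GAPDH in stably transfected HEK293H cells after 24 h compound exposure at 37° C. Abundance from efficiency-corrected Ct, normalized to GAPDH and vehicle; EC1.5x reported as star bins.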

[3] = HEK293H cells stably transfected with SMN2-A minigene, 24 hours, 7-point concentration curve, 1.5-fold relative to vehicle-treated cells

| Compound | maximum fold (Fold) increase of Smn protein [1] | EC (1.5-fold) [2, 3] [µM] | melting point [°C] | EC (1.5-fold) ([2]; 24 h) [µM] | EC1.5x (concentration giving 1.5-fold Smn protein increase) [1] [nM] |
| --- | --- | --- | --- | --- | --- |
| Cc1cccc2[nH]c(-c3cc4ccc(N5CCNCC5)cc4oc3=O)nc12 [Compound 394, 3-(4-methyl-1H-benzimidazol-2-yl)-7-(piperazin-1-yl)-2H-chromen-2-one] | * (maximum fold increase of ≤1.2) | 3 to 30 | 206 to 211 |  |  |
| Cc1ccn2cc(-c3cc4ccc(N5C[C@H]6CC[C@@H](C5)N6C)cc4oc3=O)nc2c1 [Compound 535, 7-[(1R,5S)-8-methyl-3,8-diazabicyclo[3.2.1]oct-3-yl]-3-(7-methylimidazo[1,2-a]pyridin-2-yl)-2H-chromen-2-one] | * (maximum fold increase of ≤1.2) |  | 224 to 229 | 1 to 3 |  |
| Cc1cc(F)c2nc(-c3cc4ccc(N5CCNCC5)cc4oc3=O)cn2c1 [Compound 356, 3-(8-fluoro-6-methylimidazo[1,2-a]pyridin-2-yl)-7-(piperazin-1-yl)-2H-chromen-2-one] | ** (fold increase between >1.2 and ≤1.35) | < 0.1 | 276 to 286 |  |  |
| COc1cccc(-c2cc3c(F)cc(N4CCN[C@@H](C)C4)cc3oc2=O)n1 [Compound 469, 5-fluoro-3-(6-methoxypyridin-2-yl)-7-[(3S)-3-methylpiperazin-1-yl]-2H-chromen-2-one] | ** (fold increase between >1.2 and ≤1.35) | 0.1 to 0.3 | 199 to 201 |  |  |
| O=c1oc2cc(N3CCCNCC3)ccc2cc1-c1cn2cccc(Cl)c2n1 [Compound 212, 3-(8-chloroimidazo[1,2-a]pyridin-2-yl)-7-(1,4-diazepan-1-yl)-2H-chromen-2-one] | **** (fold increase between >1.5 and ≤1.65) | 0.3 to 1 | 170 to 173 |  | 300 to 1000 |
| Cc1cn2cc(-c3cc4ccc(N5CCN6CCC[C@@H]6C5)cc4oc3=O)nc2c(C)n1 [Compound 632, 3-(6,8-dimethylimidazo[1,2-a]pyrazin-2-yl)-7-[(8aR)-hexahydropyrrolo[1,2-a]pyrazin-2(1H)-yl]-2H-chromen-2-one] | ***** (fold increase >1.65) | < 0.1 | 255 to 258 |  | < 300 |
| Cc1cn2cc(-c3cc4ccc(CCCNC(C)C)cc4oc3=O)nc2c(C)n1 [Compound 858, 3-(6,8-dimethylimidazo[1,2-a]pyrazin-2-yl)-7-[3-(propan-2-ylamino)propyl]-2H-chromen-2-one] | **** (fold increase between >1.5 and ≤1.65) | < 0.1 | 184 to 187 |  | < 300 |
| CN1CCCN(c2ccc3cc(-c4cn5cnccc5n4)c(=O)oc3c2)CC1 [Compound 460, 3-(imidazo[1,2-c]pyrimidin-2-yl)-7-(4-methyl-1,4-diazepan-1-yl)-2H-chromen-2-one] | *** (fold increase between >1.35 and ≤1.5) | 0.1 to 0.3 | 225 to 227 |  | 3000 to 10000 |
| COc1ccc(-c2cc3ccc(N4CCN[C@H](C)C4)cc3oc2=O)cc1OC [Compound 382, 3-(3,4-dimethoxyphenyl)-7-[(3R)-3-methylpiperazin-1-yl]-2H-chromen-2-one] | * (maximum fold increase of ≤1.2) | 1 to 3 | 143 to 145 |  |  |
| CN1CCN(c2ccc3cc(-c4cccnc4C(F)(F)F)c(=O)oc3c2)CC1 [Compound 125, 7-(4-methylpiperazin-1-yl)-3-[2-(trifluoromethyl)pyridin-3-yl]-2H-chromen-2-one] | * (maximum fold increase of ≤1.2) | 1 to 3 | 180 to 182 |  |  |
| Cc1ccn2cc(-c3cc4ccc(N5CCN[C@@H](C)C5)cc4oc3=O)nc2n1 [Compound 229, 3-(7-methylimidazo[1,2-a]pyrimidin-2-yl)-7-[(3S)-3-methylpiperazin-1-yl]-2H-chromen-2-one] | *** (fold increase between >1.35 and ≤1.5) | 0.1 to 0.3 | 298 to 301 |  |  |
| C[C@@H]1CN(c2ccc3cc(-c4cn5cc(F)cnc5n4)c(=O)oc3c2)CCN1 [Compound 481, 3-(6-fluoroimidazo[1,2-a]pyrimidin-2-yl)-7-[(3R)-3-methylpiperazin-1-yl]-2H-chromen-2-one] | * (maximum fold increase of ≤1.2) | 1 to 3 | 232 to 236 |  |  |
| Cc1cn2cc(-c3cc4ccc(OCCN[C@H](C)CO)cc4oc3=O)nc2c(C)n1 [Compound 946, 3-(6,8-dimethylimidazo[1,2-a]pyrazin-2-yl)-7-(2-{[(2R)-1-hydroxypropan-2-yl]amino}ethoxy)-2H-chromen-2-one] | **** (fold increase between >1.5 and ≤1.65) | < 0.1 | 185 to 188 |  | < 300 |
| CC(C)NCCCc1ccc2cc(-c3nc4c(Cl)cccc4s3)c(=O)oc2c1 [Compound 36, 3-(4-chloro-1,3-benzothiazol-2-yl)-7-[3-(propan-2-ylamino)propyl]-2H-chromen-2-one] | * (maximum fold increase of ≤1.2) | 1 to 3 | 262 to 265 |  |  |
| CCN1CCN(c2ccc3cc(-c4cc5c(C)nc(C)cn5c4)c(=O)oc3c2)CC1 [Compound 674, 3-(1,3-dimethylpyrrolo[1,2-a]pyrazin-7-yl)-7-(4-ethylpiperazin-1-yl)-2H-chromen-2-one] | ***** (fold increase >1.65) | < 0.1 | 182 to 185 |  | < 300 |
| Cc1ccc2nc(-c3cc4ccc(N5CCNCC5)c(F)c4oc3=O)cn2c1 [Compound 156, 8-fluoro-3-(6-methylimidazo[1,2-a]pyridin-2-yl)-7-(piperazin-1-yl)-2H-chromen-2-one] | ** (fold increase between >1.2 and ≤1.35) | 1 to 3 | 313 to 319 |  |  |
| Cc1cnc2nc(-c3cc4ccc(N5CCNCC5)cc4oc3=O)cn2c1 [Cpd 241, 3-(6-methylimidazo[1,2-a]pyrimidin-2-yl)-7-(piperazin-1-yl)-2H-chromen-2-one] | * (maximum fold increase of ≤1.2) | 0.3 to 1 | > 300 |  |  |
| O=c1oc2cc(N3CCNCC3)ccc2cc1-c1noc(-c2ccccc2)n1 [Cpd 50, 3-(5-phenyl-1,2,4-oxadiazol-3-yl)-7-(piperazin-1-yl)-2H-chromen-2-one] | * (maximum fold increase of ≤1.2) | 1 to 3 | 214 to 221 |  |  |
| Cc1cn2cc(-c3cc4ccc(N5CCCNCC5)cc4oc3=O)cc2cn1 [Compound 638, 7-(1,4-diazepan-1-yl)-3-(3-methylpyrrolo[1,2-a]pyrazin-7-yl)-2H-chromen-2-one] | **** (fold increase between >1.5 and ≤1.65) | < 0.1 | 178 to 181 |  | < 300 |
| CN(CCO)Cc1ccc2cc(-c3nc4ccccc4s3)c(=O)oc2c1 [Compound 79, 3-(1,3-benzothiazol-2-yl)-7-{[(2-hydroxyethyl)(methyl)amino]methyl}-2H-chromen-2-one] | *** (fold increase between >1.35 and ≤1.5) | 1 to 3 | 182 to 184 |  |  |
| Cc1cn2cc(-c3cc4ccc(N5CC6CC5CN6)cc4oc3=O)cc2c(C)n1 (stereo not drawn) [Compound 783, 7-(2,5-diazabicyclo[2.2.1]hept-2-yl)-3-(1,3-dimethylpyrrolo[1,2-a]pyrazin-7-yl)-2H-chromen-2-one] | *** (fold increase between >1.35 and ≤1.5) | < 0.1 | 236 to 239 |  |  |
| O=c1oc2cc(N3CCCNCC3)cc(F)c2cc1-c1nc2ccccc2[nH]1 [Compound 374, 3-(1H-benzimidazol-2-yl)-7-(1,4-diazepan-1-yl)-5-fluoro-2H-chromen-2-one] | * (maximum fold increase of ≤1.2) | 1 to 3 | 236 to 242 |  |  |
| CCN(CC)CCCc1ccc2cc(-c3cn4cc(C)nc(C)c4n3)c(=O)oc2c1 [Compound 969, 7-[3-(diethylamino)propyl]-3-(6,8-dimethylimidazo[1,2-a]pyrazin-2-yl)-2H-chromen-2-one] | **** (fold increase between >1.5 and ≤1.65) | < 0.1 | 165 to 168 |  | < 300 |
| CCN1CCCN(c2ccc3cc(-c4cc5c(C)nc(C)cn5c4)c(=O)oc3c2)CC1 [Compound 671, 3-(1,3-dimethylpyrrolo[1,2-a]pyrazin-7-yl)-7-(4-ethyl-1,4-diazepan-1-yl)-2H-chromen-2-one] | ***** (fold increase >1.65) | < 0.1 | 166 to 169 |  | < 300 |

Source: patent publication USRE47689E1, “Compounds for treating spinal muscular atrophy” (PTC Therapeutics, Inc., priority 2011, dated 2019)
